Source: patent EP0068239A2, “Sulfamoylbenzoic acid derivatives and pharmaceutical compositions comprising same” (MITSUI TOATSU CHEMICALS, Inc., priority 1981, dated 1983)

Assays:
anesthetized dogs = assay: Diuretic effect in anesthetized dogs (urine collection via ureter cannulae); format: in vivo, Adult mongrel dogs; settings: for ED100: 10 min, dose at which urine collected for 10 minutes after administration is twice the amount collected for 10 minutes before; for diuretic effect: high dose of 2 mg/kg
Description: Evaluation Test 2 [Diuretic effect in anesthetized dogs3
Adult mongrel dogs of either sex were used in this experiment. Each dog was anesthetized by intravenous administration of 30 mg/kg of pentobarbital sodium. Thereafter, a midline incision was made in the lower abdominal region and polyethylene cannulae for the collection of urine were inserted into the right and left ureters. In addition, a polyethylene cannula was inserted into the left femoral vein, through which 50 ml of physiological saline was administered. Thirty minutes after that, physiological saline was continuously infused at a rate of 1.5 ml/min. The experiment was started after the rate of urine excretion became constant. A compound to be tested was dissolved in dimethylformamide and administered intravenously by way of the right femoral vein, and blood pressure was surgically monitored by way of the right femoral artery.
The ED100 of the compound was defined as the dose at which the amount of urine collected for 10 minutes after the administration of the compound was equal to twice the amount of urine collected for 10 minutes before the administration.

[1] = system: rats with DOCA/saline-induced hypertension; assay: Hypotensive activity in rats with DOCA/saline-induced hypertension (systolic pressure measured indirectly through the caudal artery); format: in vivo, male Wistar rats; settings: 30 mg/kg orally once a day for 5 days, versus initial value; for Percent change of systolic pressure Day 1: measured 4 hour after administration on day 1; for Percent change of systolic pressure Day 3: measured 4 hour after administration on day 3; for Percent change of systolic pressure Day 5: measured 4 hour after administration on day 5
Description: Evaluation Test 1 (Hypotensive activity in rats with DOCA/saline-induced hypertension]
Rats with DOCA/saline-induced hypertension were prepared according to the method described in an article by H. Selye, C.E. Hall and E.M. Rowly tCanadian Medical Association Journal, Vol. 49, p. 88, 1943). More specifically, 5-weeks-old male Wistar rats, weighing 100 to 120 g, were placed under anesthesia with ether and their left kidney was excised. Thereafter, they were allowed to take saline (a 1% aqueous solution of sodium chloride) instead of water. In addition, 10 mg/kg of deoxycorticosterone acetate was subcutaneously administered once a week. After 4-6 weeks, these rats developed hypertension.
Blood pressure was measured according to the method described in an article by M. Gerold and H. Tschirky (Arzneimittelforschung, Vol. 18, p. 1285, 1968). More specifically, using a Model 8002 or 8005 BP Recorder (W+W Electronic Co.), the systolic pressure of each rat was indirectly measured through the caudal artery. The rats were placed in a high-temperature environment (45±2°C) prior to every measurement. Among the rats (aged 15-17 weeks) with DOCA/saline-induced hypertension, only those showing a systolic pressure of 170 mmHg or above were used in groups of 3 or 4.
A compound to be tested was suspended in a 0.2% solution of carboxymethyl cellulose and administered orally to the rats in a dose of 30 mg/kg. This administration was performed once a day and continued for 5 days. Blood pressure measurements were made before the administration of the compound and 4 hour after the administration on days 1, 3, and 5.

[2] = Canis lupus familiaris, intravenous

Structure (SMILES)	ED100 (anesthetized dogs; [2])	diuretic effect (anesthetized dogs; intravenous)	Percent change of systolic pressure Day 1 [1]	Percent change of systolic pressure Day 3 [1]	Percent change of systolic pressure Day 5 [1]	minimal effective dose (anesthetized dogs; Canis lupus familiaris, intravenous, anesthetized dogs, read-out: dose at which the compound began to exert a diuretic effect)	increase of urine excretion (factor) (anesthetized dogs; intravenous dose of 0.2 mg/kg)
CC1Cc2ccccc2N1NC(=O)c1cc(S(N)(=O)=O)c(Cl)cc1Br (stereo not shown) [Example 2, N-(2-bromo-4-chloro-5-sulfamoylbenzamido)-2-methylindoline]	> 2 mg/kg	little diuretic effect	-12%	-24%	-25%		
CC1Cc2ccccc2N1NC(=O)c1cc(S(N)(=O)=O)c(Cl)cc1Cl (stereo not shown) [Example 1, N-(2,4-dichloro-5-sulfamoylbenzamido)-2-methylindoline]	> 2 mg/kg	little diuretic effect	-12%	-25%	-28%		
CC1Cc2ccccc2N1NC(=O)c1ccc(Cl)c(S(N)(=O)=O)c1 (stereo not shown) [Indapamide, N-(3-sulfamoyl-4-chlorobenzamido)-2-methylindoline, reference compound]	0.2 mg/kg		-13%	-20%	-22%	0.05 mg/kg	approximately 2
